pIC50: −log10 of the molar value. “Also recorded” adds a separate entry of the source.

Series [1] can be described thus: Water solubility / formulation in aqueous vehicles.
Series [2] deals with panel of human tumor cell lines. Kind of series: Cytotoxic activity in a panel of human tumor cell lines as compared to paclitaxel.
Another series has as its system Molt-4 T-cell Leukemia. To be noted: molt-4 cells.
The subject of a further series is PC-3 Prostate Carcinoma. To be noted: pc-3 cells.
Series [3] concerns DU-145 Prostate Carcinoma. To be noted: du-145 cells.
For series [4], the system named is Ln-Cap Prostate Carcinoma. To be noted: lncap cells.
The subject of series [5] is Ovcar-3 Ovarian Carcinoma. To be noted: ovcar-3 cells.
For another series, the system named is MCF-7 Breast Carcinoma. To be noted: mcf-7 cells.
Series [6] concerns PC-3 human prostate tumor. Kind of series: In vivo efficacy against established PC-3 human prostate tumor in athymic nude mice. An excerpt: Example 11. In vivo efficacy of Taxoid BP-193
For series [7] the following is noted: Physician's Desk Reference (1994) 670, cited from earlier work.
For series [8] the following is noted: background; cited from earlier work.

Regarding `CC(=O)O[C@H]1C(=O)[C@]2(C)[C@@H](OC(=O)NCCN3C(=S)N(c4ccc(C#N)c(C(F)(F)F)c4)C(=O)C3(C)C)C[C@H]3OC[C@@]3(OC(C)=O)[C@H]2[C@H](OC(=O)c2ccccc2)[C@]2(O)C[C@H](OC(=O)[C@H](O)[C@@H](NC(=O)c3ccccc3)c3ccccc3)C(C)=C1C2(C)C` [BP-196, 7-[imidazolidinyl-5", 5"-dimethyl-4"-oxo-3"-[(4"'-cyano-3"'-trifluoromethyl)phenyl]-2"-thioxo-1"ethylcarbamoxy]paclitaxel], in [1], the “formulation in aqueous vehicles” value is recorded as “readily formulated in standard aqueous vehicles” and the “water solubility as compared with paclitaxel” value is listed as “more water soluble than paclitaxel”. Moreover, the “cytotoxic activity as compared to paclitaxel” value in series [2] is “comparable cytotoxic activity to paclitaxel”.

As for `CC(=O)O[C@H]1C(=O)[C@@]2(C)[C@H]([C@H](OC(=O)c3ccccc3)[C@]3(O)C[C@H](OC(=O)[C@H](OC(=O)NCC(O)CO)[C@@H](NC(=O)c4ccccc4)c4ccccc4)C(C)=C1C3(C)C)[C@]1(OC(C)=O)CO[C@@H]1C[C@@H]2O` (stereo partly shown) [BP-174, 2'-(2",3"-dihydroxypropylcarbamoxy) paclitaxel], in series [1], the “formulation in aqueous vehicles” value is on record as “readily formulated in standard aqueous vehicles” and the “water solubility as compared with paclitaxel” value is given as “more water soluble than paclitaxel; also recorded: enhanced water solubility as compared with paclitaxel”. In [2], the “cytotoxic activity as compared to paclitaxel” value was “comparable cytotoxic activity to paclitaxel”.

As for `CC(=O)O[C@H]1C(=O)[C@]2(C)[C@@H](OC(=O)OCC(O)CO)C[C@H]3OC[C@@]3(OC(C)=O)[C@H]2[C@H](OC(=O)c2ccccc2)[C@]2(O)C[C@H](OC(=O)[C@H](O)[C@@H](NC(=O)c3ccccc3)c3ccccc3)C(C)=C1C2(C)C` (stereo partly shown) [BP-179, 7-(2",3"-dihydroxypropylcarbonoxy)paclitaxel], the negative-log IC50 (pIC50) in the series with Molt-4 T-cell Leukemia is 6.70; with PC-3 Prostate Carcinoma, 8.49; in series [3], 7.69; in series [4], 7.69; in series [5], 7.30; in the series on MCF-7 Breast Carcinoma, 6.09.

For the compound `CC(=O)O[C@H]1C(=O)[C@@]2(C)[C@H]([C@H](OC(=O)c3ccccc3)[C@]3(O)C[C@H](OC(=O)[C@H](OC(=O)OCCC(O)CO)[C@@H](NC(=O)c4ccccc4)c4ccccc4)C(C)=C1C3(C)C)[C@]1(OC(C)=O)CO[C@@H]1C[C@@H]2O` (stereo partly shown) [BP-193, 2'-(3^11,4"-dihydroxybutyl-carbonoxy)paclitaxel], the “toxicity as compared with paclitaxel” value in series [6] (PC-3 tumor-bearing mice) is “lacking the toxicity of paclitaxel”. For the same compound, the tumor regression result in series [6] (all mice treated with BP-193) was “all tumors regressed to pretreatment levels”. Besides, the “anti-cellular proliferative activity, as measured by the reduction in tumor growth” value in series [6] (established PC-3 tumor, vs vehicle and Taxol control) is reported as “significant anti-cellular proliferative activity”. In addition, the pIC50 in the series on Molt-4 T-cell Leukemia was 8.40; in the series on PC-3 Prostate Carcinoma, 5.81; in series [3] it was 8.85; in series [4], 7.71; in [5], 7.26; in the series on MCF-7 Breast Carcinoma it was 8.06. Besides, in series [1], the “formulation in aqueous vehicles” value is reported as “readily formulated in standard aqueous vehicles”. Further, the “water solubility as compared with paclitaxel” value in [1] was “more water soluble than paclitaxel”. Besides, the “cytotoxic activity as compared to paclitaxel” value in series [2] is given as “cytotoxic activity equal to, or greater than, paclitaxel”.

Turning to `CC(=O)O[C@H]1C(=O)[C@@]2(C)[C@H]([C@H](OC(=O)c3ccccc3)[C@]3(O)C[C@H](OC(=O)[C@H](OC(=O)OCC(O)CO)[C@@H](NC(=O)c4ccccc4)c4ccccc4)C(C)=C1C3(C)C)[C@]1(OC(C)=O)CO[C@@H]1C[C@@H]2O` (stereo partly shown) [BP-171, 2'-(2",3"-dihydroxypropylcarbonoxy)paclitaxel], in [1], the “formulation in aqueous vehicles” value is on record as “readily formulated in standard aqueous vehicles” and the “water solubility as compared with paclitaxel” value was “more water soluble than paclitaxel; also recorded: enhanced water solubility as compared with paclitaxel”. In [2], the “cytotoxic activity as compared to paclitaxel” value is given as “cytotoxic activity equal to, or greater than, paclitaxel”.

As for `CC(=O)O[C@H]1C(=O)[C@]2(C)[C@@H](OC(=O)OCC(O)CO)C[C@H]3OC[C@@]3(OC(C)=O)[C@H]2[C@H](OC(=O)c2ccccc2)[C@]2(O)C[C@H](OC(=O)[C@H](OC(=O)OCC(O)CO)[C@@H](NC(=O)c3ccccc3)c3ccccc3)C(C)=C1C2(C)C` (stereo partly shown) [BP-177, 2',7-di(2",3"-dihydroxypropylcarbonoxy)paclitaxel], the pIC50 in the series with Molt-4 T-cell Leukemia was 6.15; in the series on PC-3 Prostate Carcinoma it was 7.24; in series [3], 7.04; in series [4] it was 7.57; in series [5] it was 7.30; in the series with MCF-7 Breast Carcinoma, 6.47. Moreover, the “formulation in aqueous vehicles” value in series [1] is “readily formulated in standard aqueous vehicles”. Also, the “water solubility as compared with paclitaxel” value in series [1] is on record as “more water soluble than paclitaxel”. The “cytotoxic activity as compared to paclitaxel” value in series [2] is given as “comparable cytotoxic activity to paclitaxel”.

In the case of `CC(=O)O[C@H]1C(=O)[C@@]2(C)[C@H]([C@H](OC(=O)c3ccccc3)[C@]3(O)C[C@H](OC(=O)[C@H](O)[C@@H](NC(=O)c4ccccc4)c4ccccc4)C(C)=C1C3(C)C)[C@]1(OC(C)=O)CO[C@@H]1C[C@@H]2O` [Taxol, paclitaxel, reference compound], the pIC50 in series [3] was 8.67; in series [4], 8.82; in [5], 8.65; with MCF-7 Breast Carcinoma it was 8.30. For the same compound, the “plasma concentration following infusion” value in series [7] is recorded as “rapidly declines following infusion”. Further, the “mean steady state volume of distribution” value in series [7] (following infusion) is on record as 42 to 162 LIm^2. Besides, the “side effects (hypersensitivity, myelosuppression, neuropathy, alopecia, cardio-toxicity)” value in series [8] is given as “about 30 % of patients”.

Values taken from patent US5801191A, “Taxoids” (Biophysica Foundation, priority 1995, dated 1998).
